Results: patent publication US9243254B2, “Method for transforming a bacterium belonging to the streptococcus genus by natural competence” (priority 2009, dated 2016)

Tests used:
S. thermophilus CNRZ1066 = assay: Natural transformation in CDM upon addition of synthetic peptide; format: cell-based, Streptococcus thermophilus
Experimental: (§1) Similarly to the protocol used in example 4, strains LMD-9, LMG18311, CNRZ1066 and JIM8777 were pre-cultivated in M17-lactose medium. The cells of the precultures were harvested (5000 g, 9 minutes, 20° C.) and washed twice in CDM and then resuspended in CDM. The washed cells were diluted in fresh CDM medium to obtain an optical density of 0.05, and then incubated at 37° C. After 1.5 h of incubation, in one set of experiment, 1 μM of one of the tested synthetic peptides and 1 μg/mL of pGIUD0855ery DNA (in case of S. thermophilus strains), or 1 μg/ml of pG+host09 DNA (in case of S. salivarius strains) were added to the culture, whereas 1 μg/mL of DNA but no synthetic peptide was added to the second set of experiment. The cultures were grown during 6 hours and serial dilutions were plated on the surface of M17-lactose agar medium containing 2.5 μg/mL of erythromycin to measure transformation efficiency. Transformed S. thermophilus and S. salivarius cells are selected at 37° C. and 29° C., respectively.
(§2) Similarly to the protocol used in example 4, various S. thermophilus strains, including LMD-9, CNRZ1066 and LMG18311 used as controls, were pre-cultivated in M17-lactose medium. The cells of the precultures were harvested (5000 g, 9 minutes, 20° C.) and washed twice in CDM and then resuspended in CDM. The washed cells were diluted in fresh CDM medium to obtain an optical density of 0.05, and then incubated at 37° C. After 1.5 h of incubation, in one set of experiment, 1 μM of one of the tested synthetic peptides (LPYFAGCL) (SEQ ID NO: 85) and 1 μg/mL of pGIUD0855cat DNA were added to the culture, whereas 1 μg/mL of DNA but no synthetic peptide was added to the second set of experiment. Plasmid pGIUD0855cat is a pUC18-derivative containing a chloramphenicol resistance cassette flanked by 1-kb fragments corresponding to the upstream and downstream regions of stu0855. Upon transformation, it promotes the genetic replacement of stu0855 by P32-cat through homologous recombination (FIG. 7). The cultures were grown during 6 hours and serial dilutions were plated on the surface of M17-lactose agar medium containing 5 μg/mL of chloramphenicol to measure transformation efficiency. Transformed S. thermophilus cells were selected at 37° C.; when transformants were obtained, the transformation efficiency was calculated and is given in Table 9.
Day 2: • Centrifuge Day 1—culture (centrifugation parameters: 5000 g, 9 minutes, 15° C.) and perform two washing steps with one volume (10 mL) of CDM (centrifugation parameters: 5000 g, 9 minutes, 15° C.). • Dilute the culture in 10 mL CDM to obtain an OD600nm of 0.05. • A small volume of S. thermophilus cultures (300 μL) is then transferred in white microplate with a transparent bottom (655095; Greiner, Alphen aid Rijn, The Netherlands) and is grown at 37° C. Luminescence at 595 nm and optical density at 600 nm are recorded with the automatic Synergy HT multi-mode microplate reader. The luciferase activity catalysed by LuxAB requires the presence of nonanal as substrate. In this experimental set-up, nonanal (Acros Organics ref. 204-688-5) is supplied to the cultures by placing 50 μL of a solution containing 1% nonanal diluted in mineral oil in the spaces between the wells of a covered microplate (11). […] The luminescence and absorbance are scanned every 10 minutes during 6 hours. • To perform a competence experiment, 1 μg of donor DNA is added in the 300 μL samples in the beginning of incubation. […]

S. salivarius JIM8777 = assay: as above; format: cell-based, Streptococcus salivarius
Experimental: as §1
Day 2: • Centrifuge Day 1—culture (centrifugation parameters: 5000 g, 9 minutes, 15° C.) and perform two washing steps with one volume (10 mL) of CDM (centrifugation parameters: 5000 g, 9 minutes, 15° C.). • Dilute the culture in 10 mL CDM to obtain an OD600nm of 0.05. • A small volume of S. thermophilus cultures (300 μL) is then transferred in white microplate with a transparent bottom (655095; Greiner, Alphen aid Rijn, The Netherlands) and is grown at 37° C. Luminescence at 595 nm and optical density at 600 nm are recorded with the automatic Synergy HT multi-mode microplate reader. The luciferase activity catalysed by LuxAB requires the presence of nonanal as substrate. In this experimental set-up, nonanal (Acros Organics ref. 204-688-5) is supplied to the cultures by placing 50 μL of a solution containing 1% nonanal diluted in mineral oil in the spaces between the wells of a covered microplate (11). The nonanal present in the solution will become volatile and there will be an equilibrium between the concentration of nonanal present in the air and in the culture samples. The luminescence and absorbance are scanned every 10 minutes during 6 hours. • To perform a competence experiment, 1 μg of donor DNA is added in the 300 μL samples in the beginning of incubation. […] In case of the sample that received DNA, make different 10-fold dilutions of the sample and plate 100 μL on the same solid selective medium. Check the viability of the cells in the samples by plating 10 μL of serial 10-fold dilutions of the cultures on M17, lactose 1% medium. Transformants are picked following 24 h of incubation at 37° C. in anaerobic conditions (gaspak BBL). […]

S. thermophilus DGCC7891 = assay: as above; format: cell-based, Streptococcus thermophilus; conditions: 1 μM LPYFAGCL, 1 μg/mL pUC18_stu0855::P32cat
Experimental: as §2

S. thermophilus DGCC782 = assay: as above; format: cell-based, Streptococcus thermophilus; conditions: 1 μM LPYFAGCL, 1 μg/mL pUC18_stu0855::P32cat
Experimental: as §2

S. thermophilus DGCC7879 = assay: as above; format: cell-based, Streptococcus thermophilus; conditions: 1 μM LPYFAGCL, 1 μg/mL pUC18_stu0855::P32cat
Experimental: as §2

S. thermophilus DGCC7909 = assay: as above; format: cell-based, Streptococcus thermophilus; conditions: 1 μM LPYFAGCL, 1 μg/mL pUC18_stu0855::P32cat
Experimental: as §2

[1] = tested on: various S. thermophilus strains; assay: Competence induction over the panel of S. thermophilus strains (summary of Table 9); format: cell-based, Streptococcus thermophilus
Experimental: as §2

Row | Substance | Transformation rate, With peptide addition (S. thermophilus CNRZ1066; 1 μM PYFAGCL, 1 μg/mL pGIUD0855ery) | Complementation of the transformation defect in CDM (S. thermophilus CNRZ1066; 1 μM peptide, result in words) | Transformation rate, With peptide addition (S. salivarius JIM8777; 1 μM PYFAGCL, 1 μg/mL pG+host9) | Complementation of the transformation defect in CDM (S. salivarius JIM8777; 1 μM peptide, result in words) | Transformation rate, With peptide addition (S. thermophilus CNRZ1066; 1 μM LPYFAGCL, 1 μg/mL pUC18_stu0855::P32cat, chloramphenicol selection) | Transformation rate, With peptide addition (S. thermophilus DGCC7891) | Transformation rate, With peptide addition (S. thermophilus DGCC782) | Transformation rate, With peptide addition (S. thermophilus DGCC7879) | Transformation rate, With peptide addition (S. thermophilus DGCC7909) | Improvement of the efficiency of transformation by the addition of the peptide ([1]; 1 μM LPYFAGCL versus no peptide) | Number of strains competent when CDM is supplemented with the peptide ([1]; 1 μM LPYFAGCL, 9 competent without peptide) [strains] | Number of strains whose efficiency of transformation was greatly improved by the addition of the peptide ([1]; out of the 19 competent strains) [strains]
1 | PYFAGCL (fragment) | 3.69 × 10^−4 | complements the transformation defect | 3.07 × 10^−6 | complements the transformation defect | – | – | – | – | – | – | – | –
2 | LPYFAGCL (fragment) [synthetic peptide corresponding to a C-terminal fragment of Shp316] | – | – | – | – | 3 × 10^−2 | 1.4 × 10^−4 | 2 × 10^−3 | 8.6 × 10^−3 | 4.5 × 10^−3 | up to 6 Log | 19 | 17
